This is an account of results in PubChem BioAssay AID190 (DTP/NCI, 2004).

This test relates to AKR/Lw mice, AKR lymphoma ip, median survival T/C. Kind of test: NCI In Vivo Anticancer Drug Screen. Data for tumor model Lymphoma AKR (Transplanted) (intraperitoneal) in AKR/Lw mice. Particulars: endpoint: median survival time, higher = longer survival. How it is done:
The antitumor activity of compounds was measured in mice bearing transplantable tumors. Survival or tumor size were measured and the results are expressed as the measurement made in the treated group (T) divided by the measurement made in the vehicle treated control group (C). The tumor model used in this assay is Lymphoma AKR (Transplanted) (intraperitoneal) in AKR/Lw mice

The mark [1] stands for this setting: dose: 12.5 mg/kg/injection, schedule: Q01DX001 (ip), vehicle: saline.
Where [2] appears, read: dose: 25.0 mg/kg/injection, schedule: Q01DX001 (ip), vehicle: saline.
The mark [3] stands for this setting: dose: 100.0 mg/kg/injection, schedule: Q01DX001 (ip), vehicle: Klucel (hydroxypropylcellulose) (HPC).
The mark [4] stands for this setting: dose: 100.0 mg/kg/injection, schedule: Q04DX003 (ip), vehicle: Klucel (hydroxypropylcellulose) (HPC).
Where [5] appears, read: dose: 200.0 mg/kg/injection, schedule: Q01DX001 (ip), vehicle: Klucel (hydroxypropylcellulose) (HPC).
The mark [6] stands for this setting: dose: 400.0 mg/kg/injection, schedule: Q01DX001 (ip), vehicle: Klucel (hydroxypropylcellulose) (HPC).

Where “and” joins values, the source holds several entries; their conditions need not be identical. Identical values can stand only once. Inconclusive results and toxic doses are left out.

For `Cc1c2ccncc2c(C)c2c1[nH]c1ccccc12`, the T/C reads like this: (dose: 1.2 mg/kg/injection, schedule: Q01DX009 (ip), vehicle: Klucel (hydroxypropylcellulose) (HPC)) 87 % of control; (dose: 1.25 mg/kg/injection, schedule: Q01DX009 (ip), vehicle: saline) 165 % of control; (dose: 1.5 mg/kg/injection, schedule: Q01DX009 (ip), vehicle: saline) 90 % of control and 118 % of control; (dose: 3.0 mg/kg/injection, schedule: Q01DX009 (ip), vehicle: saline) 104 % of control and 121 % of control; (dose: 5.0 mg/kg/injection, schedule: Q01DX009 (ip), vehicle: saline) 111 % of control; (dose: 6.0 mg/kg/injection, schedule: Q01DX009 (ip), vehicle: saline) 116 % of control. For the same molecule, the T/C (dose: 7.5 mg/kg/injection, schedule: Q04DX003 (ip), vehicle: Klucel (hydroxypropylcellulose) (HPC)) is 88 % of control; the T/C (dose: 7.5 mg/kg/injection, schedule: Q04DX003 (ip), vehicle: saline) is 96 % of control; the T/C (dose: 10.0 mg/kg/injection, schedule: Q01DX009 (ip), vehicle: saline) is 152 % of control; the T/C (dose: 12.5 mg/kg/injection, schedule: Q01DX001 (ip), vehicle: Klucel (hydroxypropylcellulose) (HPC)) is 97 % of control; the T/C under setting [1] is 124 % of control; the T/C (dose: 15.0 mg/kg/injection, schedule: Q01DX009 (ip), vehicle: Klucel (hydroxypropylcellulose) (HPC)) is 103 % of control. For the same molecule, the T/C reads like this: (dose: 15.0 mg/kg/injection, schedule: Q04DX003 (ip), vehicle: Klucel (hydroxypropylcellulose) (HPC)) 119 % of control; (dose: 15.0 mg/kg/injection, schedule: Q04DX003 (ip), vehicle: saline) 112 % of control; (dose: 18.75 mg/kg/injection, schedule: Q04DX003 (ip), vehicle: saline) 111 % of control and 116 % of control and 117 % of control; (dose: 18.8 mg/kg/injection, schedule: Q04DX003 (ip), vehicle: Klucel (hydroxypropylcellulose) (HPC)) 105 % of control; (dose: 20.0 mg/kg/injection, schedule: Q01DX009 (ip), vehicle: Klucel (hydroxypropylcellulose) (HPC)) 86 % of control; (dose: 20.0 mg/kg/injection, schedule: Q01DX009 (ip), vehicle: saline) 111 % of control. Moreover, the T/C was 119 % of control (dose: 20.0 mg/kg/injection, schedule: Q04DX003 (ip), vehicle: Klucel (hydroxypropylcellulose) (HPC)); 123 % of control (dose: 25.0 mg/kg/injection, schedule: Q01DX001 (ip), vehicle: Klucel (hydroxypropylcellulose) (HPC)); 120 % of control under setting [2]; 263 % of control (dose: 25.0 mg/kg/injection, schedule: Q01DX005 (ip), vehicle: water); 153 % of control (dose: 25.0 mg/kg/injection, schedule: Q04DX003 (ip), vehicle: Klucel (hydroxypropylcellulose) (HPC)); 104 % of control and 111 % of control (dose: 30.0 mg/kg/injection, schedule: Q04DX003 (ip), vehicle: Klucel (hydroxypropylcellulose) (HPC)). For the same molecule, the T/C was 116 % of control (dose: 35.0 mg/kg/injection, schedule: Q04DX003 (ip), vehicle: Klucel (hydroxypropylcellulose) (HPC)); 118 % of control (dose: 50.0 mg/kg/injection, schedule: Q01DX001 (ip), vehicle: Klucel (hydroxypropylcellulose) (HPC)); 197 % of control (dose: 50.0 mg/kg/injection, schedule: Q01DX005 (ip), vehicle: water); 153 % of control (dose: 50.0 mg/kg/injection, schedule: Q04DX003 (ip), vehicle: Klucel (hydroxypropylcellulose) (HPC)); 226 % of control (dose: 50.0 mg/kg/injection, schedule: Q04DX003 (ip), vehicle: water); 123 % of control (dose: 75.0 mg/kg/injection, schedule: Q01DX001 (ip), vehicle: Klucel (hydroxypropylcellulose) (HPC)). For the same molecule, the T/C was 111 % of control and 121 % of control under setting [3]; 107 % of control under setting [4]; 100 % of control (dose: 100.0 mg/kg/injection, schedule: Q04DX003 (ip), vehicle: saline); 315 % of control (dose: 100.0 mg/kg/injection, schedule: Q04DX003 (ip), vehicle: water); 102 % of control (dose: 150.0 mg/kg/injection, schedule: Q01DX001 (ip), vehicle: Klucel (hydroxypropylcellulose) (HPC)); 115 % of control (dose: 150.0 mg/kg/injection, schedule: Q01DX001 (ip), vehicle: saline).

In the case of `O=C(NC(CSC(c1ccccc1)c1ccccc1)C(=O)O)OCc1ccccc1` (stereo not given), the T/C under setting [3] is 95 % of control, the T/C under setting [5] is 93 % of control and the T/C under setting [6] is 95 % of control.

On to `CC1(C)CC[N+]1(C)Cc1ccccc1` (stereo not given), for which the T/C by setting is: (dose: 6.25 mg/kg/injection, schedule: Q01DX001 (ip), vehicle: saline) 97 % of control; under setting [1], 100 % of control; under setting [2], 100 % of control.

As to `COc1ccc(-n2c(=S)[nH]c3ccccc3c2=O)cc1`, the T/C (dose: 75.0 mg/kg/injection, schedule: Q04DX003 (ip), vehicle: Klucel (hydroxypropylcellulose) (HPC)) was 88 % of control; the T/C under setting [3] is 106 % of control; the T/C (dose: 150.0 mg/kg/injection, schedule: Q04DX003 (ip), vehicle: Klucel (hydroxypropylcellulose) (HPC)) was 86 % of control; the T/C under setting [5] is 87 % of control; the T/C under setting [6] was 90 % of control.

Regarding `Cn1c(O)c(C=N)c(=O)[nH]c1=O`, the T/C (dose: 100.0 mg/kg/injection, schedule: Q01DX001 (ip), vehicle: saline) was 113 % of control; the T/C under setting [4] was 104 % of control; the T/C (dose: 200.0 mg/kg/injection, schedule: Q01DX001 (ip), vehicle: saline) was 94 % of control; the T/C (dose: 200.0 mg/kg/injection, schedule: Q04DX003 (ip), vehicle: Klucel (hydroxypropylcellulose) (HPC)) is 93 % of control; the T/C (dose: 400.0 mg/kg/injection, schedule: Q01DX001 (ip), vehicle: saline) is 113 % of control; the T/C (dose: 400.0 mg/kg/injection, schedule: Q04DX003 (ip), vehicle: Klucel (hydroxypropylcellulose) (HPC)) was 97 % of control.

Consider `Cc1c(N)nc([C@H](CC(N)=O)NC[C@H](N)C(N)=O)nc1C(=O)N[C@H](C(=O)N[C@H](C)[C@@H](O)[C@H](C)C(=O)N[C@H](C(=O)NCCc1nc(-c2nc(C(=O)NCCC[S+](C)C)cs2)cs1)[C@@H](C)O)C(OC1OC(CO)C(O)C(O)C1OC1OC(CO)C(O)C(OC(N)=O)C1O)c1cnc[nH]1` (stereo not given in full), for which the T/C (dose: 0.05 mg/kg/injection, schedule: Q01DX010 (ip), vehicle: saline) was 120 % of control; the T/C (dose: 0.1 mg/kg/injection, schedule: Q01DX010 (ip), vehicle: saline) is 103 % of control; the T/C (dose: 0.25 mg/kg/injection, schedule: Q01DX010 (ip), vehicle: saline) is 116 % of control; the T/C (dose: 0.4 mg/kg/injection, schedule: Q01DX010 (ip), vehicle: saline) is 113 % of control; the T/C (dose: 0.5 mg/kg/injection, schedule: Q01DX010 (ip), vehicle: saline) was 106 % of control; the T/C (dose: 0.75 mg/kg/injection, schedule: Q01DX010 (ip), vehicle: saline) was 106 % of control. Moreover, the T/C (dose: 1.0 mg/kg/injection, schedule: Q01DX010 (ip), vehicle: saline) was 100 % of control; the T/C (dose: 1.5 mg/kg/injection, schedule: Q01DX010 (ip), vehicle: saline) is 93 % of control; the T/C (dose: 1.9 mg/kg/injection, schedule: Q01DX010 (ip), vehicle: saline) was 95 % of control; the T/C (dose: 2.0 mg/kg/injection, schedule: Q01DX010 (ip), vehicle: saline) is 100 % of control.

Take `CCOC(=O)CCCl`: the T/C is, setting by setting: under setting [5], 111 % of control; under setting [6], 97 % of control.
